According to article PMC3494675, “Structure-Function Analysis of the Glioma Targeting NFL-TBS.40-63 Peptide Corresponding to the Tubulin-Binding Site on the Light Neurofilament Subunit” (PLoS ONE, 2012):
Peptide text beside a SMILES is read from it. * marks the point of attachment. Biotin = O=C1N[C@H]2[C@H](CS[C@H]2CCCCC(=O)*)N1

Assays:
[1] = system: T98G human glioblastoma cells; test: Peptide incorporation into T98G cells (immunocytochemistry, cell counting); type: cell-based
Procedure, shortened: (§1)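 Cells on cover slips were cultured 6 h with 10 μM biotinylated peptide, permeabilized, and stained with anti-β-tubulin plus fluorescent streptavidin. By fluorescence/confocal microscopy, ≥200 cells per experiment were scored for peptide uptake and for a normal versus destroyed microtubule network; at least three repeats.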

[2] = system: Human adrenal carcinoma SW13 cells; test: Peptide entry into SW13 cells (immunocytochemistry); type: cell-based; settings: 10 µM, 6 hours
Protocol: (§2) Figure 1 Internalization and effects on glioblastoma T98G cells of the wild type peptide NFL-TBS.40-63 and peptides from the alanine scan. (A): Human glioblastoma T98G cells were incubated in the presence of different peptides at 10 µM during 6 hours. MTs were detected by immunostaining using an anti-tubulin antibody (red), and biotinylated peptides were detected using Alexa-labeled avidin (green). While the original NFL-TBS.40-63 peptide is able to penetrate in these cells, the replacement of valine-14 by alanine typically abolished this property. White bars, 20 µm. (B) Human adrenal carcinoma SW13 cells were incubated in the presence of NFL-TBS.40-63 peptide (10 µM, 6 hours). MTs appear in red, peptide in green, nuclei in blue. White bars, 20 µm. (C): We quantified by microscopy the percentage of T98G cells containing the peptide and those with a destroyed MT network. Experiments were triplicated and a minimum of 200 cells was examined in each experiment. Data are presented as mean and S.E.M. (bars). Asterisks indicate significant level versus control: * p<0.05; ** p<0.005; *** p<0.001. As glioblastoma cells are known to have multiple mutations and abnormalities, the shaded area corresponds to the percentage of cells where MTs are disorganized even in the absence of peptide.
(§3) Cells were plated on cover slips and cultured in media containing biotinylated peptides (10 µM) for 6 hours. […]

[3] = Structural (thermal) stability by circular dichroism at 220 nm; type: physicochemical
Protocol: Circular dichroism (CD) spectra were measured in a J-810 CD spectrometer (Jasco, Japan) in step mode (bandwidth: 2 nm; interval: 0.1 nm; response time: 0.125 s). The spectra were averaged over 3 scans to increase the signal to noise ratio. To optimize the measurements, a 1 cm×0.2 cm mini-quartz cell with four windows (Hellema, Germany) was used in such a way that the spectra from 260 to 200 nm were measured with a 1 cm pathlength and those between 220 and 185 nm with 0.2 cm pathlength. After normalization for pathlength (1 cm), the superimposition of two separated spectra in the 200–220 nm region was verified and the entire spectra reconstituted. The temperature of measurement was controlled with a Peltier-effect temperature controller, and was usually 20°C. […] All the CD experiments were performed with 20 µM peptide under 3 buffer conditions: pure water, 2 mM SDS and 10 mM potassium phosphate pH 7.4 with 200 mM KF.

[4] = system: T98G human glioblastoma cells; test: Disintegration of the microtubule network in T98G cells (anti-tubulin immunostaining, cell counting); type: cell-based; settings: T98G cells, 10 µM biotinylated peptide, 6 hours; anti-tubulin immunostaining; minimum 200 cells per experiment; mean ± S.E.M., triplicated
Procedure, shortened: as §1

[5] = system: Human adrenal carcinoma SW13 cells; test: Effect on MT network of SW13 cells (immunocytochemistry); type: cell-based; settings: 10 µM, 6 hours
Protocol: as §2, §3

[6] = Secondary structure estimation from CD spectra; type: physicochemical; settings: Reed's reference set
Protocol: Circular dichroism (CD) spectra were measured in a J-810 CD spectrometer (Jasco, Japan) in step mode (bandwidth: 2 nm; interval: 0.1 nm; response time: 0.125 s). The spectra were averaged over 3 scans to increase the signal to noise ratio. To optimize the measurements, a 1 cm×0.2 cm mini-quartz cell with four windows (Hellema, Germany) was used in such a way that the spectra from 260 to 200 nm were measured with a 1 cm pathlength and those between 220 and 185 nm with 0.2 cm pathlength. After normalization for pathlength (1 cm), the superimposition of two separated spectra in the 200–220 nm region was verified and the entire spectra reconstituted. The temperature of measurement was controlled with a Peltier-effect temperature controller, and was usually 20°C. The structural stability of peptides was studied by measuring the variation in CD signal at 220 nm (bandwidth: 10 nm; interval: 1 s; response time: 0.5 s; pathlength: 1 cm) when the temperature was increased by 1°C/min from 20 to 85°C. All the CD experiments were performed with 20 µM peptide under 3 buffer conditions: pure water, 2 mM SDS and 10 mM potassium phosphate pH 7.4 with 200 mM KF.
The secondary structures were estimated from the CD spectra with Jasco secondary structure estimation software. The spectra from […] were decomposed to α-helix, β-sheet, β-turn and random coil elements using either Reed's or Yang's reference set as reference spectrum of each element as described, [38]. We usually obtained better fits using Reed's reference.

[7] = KF/phosphate buffer pH 7.4, 20 µM

Q: For CC(C)C[C@H](NC(=O)[C@H](CO)NC(=O)[C@H](CO)NC(=O)[C@H](CO)NC(=O)[C@@H](NC(=O)[C@@H]1CCCN1C(=O)[C@H](C)NC(=O)[C@H](CO)NC(=O)[C@H](Cc1ccc(O)cc1)NC(=O)[C@H](CO)NC(=O)[C@H](CO)NC(=O)[C@H](Cc1ccc(O)cc1)NC(=O)CCCC[C@@H]1SC[C@@H]2NC(=O)N[C@@H]21)C(C)C)C(=O)N[C@@H](CO)C(=O)N[C@H](C(=O)N[C@@H](CCCNC(=N)N)C(=O)N[C@@H](CCCNC(=N)N)C(=O)N[C@@H](CO)C(=O)N[C@@H](Cc1ccc(O)cc1)C(=O)N[C@@H](CO)C(=O)N[C@@H](CO)C(=O)N[C@@H](CO)C(=O)N[C@@H](CO)C(=O)NCC(=O)N[C@@H](CO)C(N)=O)C(C)C [NFL-TBS.40-63] (Biotin-YSSYSAPVSSSLSVRRSYSSSSGS-NH2), which “Peptide incorporation (% of cells)” value ([1]; T98G cells, 10 µM biotinylated peptide, 6 hours, Alexa-labeled avidin/streptavidin fluorescence microscopy, minimum 200 cells per experiment, mean ± S.E.M., triplicated) is on record?
A: 51.2±4.2 % of cells

Q: What about the “Cell penetration of the peptide once heated” value ([1]; peptide heated in KF/phosphate buffer (thermally unfolded)) of the same molecule?
A: could not penetrate into the cells

Q: And the “Entry into SW13 cells” value [2]?
A: enters in SW13 cells

Q: What about the “Refolding on lowering temperature” value ([3]; CD 220 nm, KF/phosphate buffer, 70 to 10°C at 1°C per min and after 12 hours at 20°C) of the same molecule?
A: no refolding was observed

Q: What about the “Tm of thermal unfolding” value ([3]; CD signal at 220 nm, 20 µM peptide, KF/phosphate buffer (10 mM potassium phosphate pH 7.4, 200 mM KF), 1°C/min) of the same molecule?
A: about 40 °C

Q: And the “Structural stability with increasing temperature” value ([3]; CD, 20 µM peptide in 2 mM SDS, up to 70°C)?
A: stable

Q: What about the “Disintegration of MT (% of cells)” value [4] of the same molecule?
A: 58.4±2.3 % of cells

Q: And the “Effect on MT network of SW13 cells” value [5]?
A: without affecting the MT network

Q: And the random coil content ([6]; 2 mM SDS, 20 µM)?
A: 40%

Q: What about the α-helix content ([6]; 2 mM SDS, 20 µM) of the same molecule?
A: 20%

Q: And the β-sheet content ([6]; 2 mM SDS, 20 µM)?
A: 40%

Q: What about the random coil content [6, 7] of the same molecule?
A: 36%

Q: What about the α-helix content [6, 7] of the same molecule?
A: 7%

Q: And the β-sheet content [6, 7]?
A: 56%

Q: And the random coil content ([6]; pure water, 20 µM, 20°C)?
A: 75%

Q: What about the β-sheet content ([6]; pure water, 20 µM, 20°C) of the same molecule?
A: 25%
